Data taken from patent US11839679B2, “Gamma-diketones for treatment and prevention of aging skin and wrinkles” (BioSplice Therapeutics, Inc., priority 2014, dated 2023).

System: fine lines, wrinkles in the outer canthus of the eyes (crow's feet area)
Assay: Panelist self-assessment questionnaire, Example 1
Format: in vivo, human
Details: for Q2 appearance of my skin around either of my eyes, Average Score: Score 1 (Better) to 5 (Worse); for Q4 any discomfort, other than slight tingling, in the treated area during the study, Average Score: Score 1 (No) to 5 (Yes, everyday lasting more than an hour); for Q1 My wrinkles in the eye area have improved, Average Score: Score 1 (Strongly agree) to 5 (Strongly disagree); for Q3 how do you feel about the treated area surrounding your eyes and the appearance of wrinkles, Average Score: Score 1 (Very Satisfied) to 5 (Very Dissatisfied); for Q2 appearance of my skin around either of my eyes, % Responders Score 1: Score 1 = Better; for Q4 any discomfort, other than slight tingling, in the treated area during the study, % Responders Score 1: Score 1 = No; for Q1 My wrinkles in the eye area have improved, % Responders Score 1: Score 1 = Strongly agree; for Q3 how do you feel about the treated area surrounding your eyes and the appearance of wrinkles, % Responders Score 1: Score 1 = Very Satisfied; for Q1 My wrinkles in the eye area have improved, % Responders Score 2: Score 2 = Agree; for Q2 appearance of my skin around either of my eyes, % Responders Score 2: Score 2 = Little better; for Q3 how do you feel about the treated area surrounding your eyes and the appearance of wrinkles, % Responders Score 2: Score 2 = Satisfied; for Q4 any discomfort, other than slight tingling, in the treated area during the study, % Responders Score 2: Score 2 = Yes, occasional discomfort lasting less than an hour; for Q1 My wrinkles in the eye area have improved, % Responders Score 3: Score 3 = Neither agree or disagree
Experimental: Three groups of women were recruited to evaluate and compare the efficacy of three anti-aging test products (targeting the periorbital eye area) intended to reduce the appearance of fine lines, wrinkles in the outer canthus of the eyes (crow's feet area) over a 12 week period. Wrinkle assessment was conducted instrumentally using a Visioscan image analysis system. Effectiveness of the test product was evaluated using panelist self-assessment via questionnaire responses comprised of 3-4 questions (Q1, Q2, Q3 & Q4). Each stage in the progression of treatments was photographically documented using a High Resolution Scientifically Matched Photography technique. Image analysis was utilized to quantify changes in fine lines and crow's feet condition observed in the Scientifically Matched Photographs.
Subject Selection: • Number: Six subjects (two per group) to complete the study. • Sex: Females • Race: Caucasian/Asian/Hispanic • Age Range: 40 through 60 years old
Test samples: • Topical 0.15% of Compound #222 in Oil (a 50/50 mixture of • Propylene Glycol Dicaprylate/Dicaprate and Caprylic/Capric Triglyceride) (Cohort 1) • Topical 0.15% of Compound #222 in PEG400 (Cohort 2) • Topical 0.05% of Compound #222 in PEG400 (Cohort 3)
All subjects were instructed to use the test material once a day, as part of their daily skin care routine. Immediately following baseline evaluations, the subjects were issued the product with the following instructions:
GROUP 1—Compound #222 Topical 0.15% in oil (Cohort 1): The subjects were instructed to hold the bottle at an angle such that the roller-ball was at bottom and apply the roller-ball to the periorbital area, including the crow's feet area, 2-3 times, starting from the area under the eye (and above the cheekbone) and moving up towards the outer tip of the eye-brow. After 2-3 rolls, they were able to see wetness on the treated area. This procedure was repeated for the other eye.
GROUPS 2 & 3 Compound #222 Topical 0.15% in PEG (Cohort 2) & Compound #222 Topical 0.05% in PEG (Cohort 3): The subjects were instructed to hold the dispenser upright with one hand and with the tip of the index finger on the pump (similar to holding a spray container), pour a small amount of the product into the palm of their other hand by pumping once or twice. The product was then applied on to the periorbital area, including the crow's feet area, of both eyes with their index finger.
[…] After acclimating to ambient conditions, High Resolution Scientifically Matched Photographs were be taken and biophysical measurements (Surface Evaluation of Living Skin via Visioscan) were repeated using the standard template to identify test sites on the face. In addition (during the acclimation period) all participants were be asked to fill out a self-assessment questionnaire.
The source data was Visioscan and PhotoGrammetrix Image Analysis readings along with subjective assessments, which were totaled and reported as average scores. Photographs were placed side by side as to compare the photographs of before and after application of the test product in the eye area. Wrinkle reduction analysis source data consisted of crow's feet area quantification in relative units (px), collected at baseline and, the week 2, 4, 8 and 12 evaluations. The data obtained via Visioscan and from PhotoGrammetrix Image Analysis was quoted as % differences from baseline at each of the previously described time points. A paired t-test analysis was conducted in order to compare the results of post test product application measurements to baseline measurements where applicable. Statistical significance was established if p≤(α=0.05) was calculated.

[1] = Day 7, Topical 0.05% in PEG (Cohort 3)
[2] = Day 7, Topical 0.15% in Oil (Cohort 1)
[3] = Day 7, Topical 0.15% in PEG (Cohort 2)
[4] = Day 14, Topical 0.05% in PEG (Cohort 3)
[5] = Day 14, Topical 0.15% in Oil (Cohort 1)
[6] = Day 14, Topical 0.15% in PEG (Cohort 2)

Q4 any discomfort, other than slight tingling, in the treated area during the study, Average Score [1]: 1.00
Q4 any discomfort, other than slight tingling, in the treated area during the study, Average Score [2]: 1.50
Q4 any discomfort, other than slight tingling, in the treated area during the study, Average Score [3]: 1.50
Q4 any discomfort, other than slight tingling, in the treated area during the study, Average Score [4]: 1.00
Q4 any discomfort, other than slight tingling, in the treated area during the study, Average Score [5]: 1.50
Q4 any discomfort, other than slight tingling, in the treated area during the study, Average Score [6]: 2.50
Q4 any discomfort, other than slight tingling, in the treated area during the study, % Responders Score 1 [1]: 100%
Q4 any discomfort, other than slight tingling, in the treated area during the study, % Responders Score 1 [2]: 50%
Q4 any discomfort, other than slight tingling, in the treated area during the study, % Responders Score 1 [3]: 50%
Q4 any discomfort, other than slight tingling, in the treated area during the study, % Responders Score 1 [4]: 100%
Q4 any discomfort, other than slight tingling, in the treated area during the study, % Responders Score 1 [5]: 50%
Q4 any discomfort, other than slight tingling, in the treated area during the study, % Responders Score 1 [6]: 50%
Q4 any discomfort, other than slight tingling, in the treated area during the study, % Responders Score 2 [1]: 0%
Q4 any discomfort, other than slight tingling, in the treated area during the study, % Responders Score 2 [2]: 50%
Q4 any discomfort, other than slight tingling, in the treated area during the study, % Responders Score 2 [3]: 50%
Q4 any discomfort, other than slight tingling, in the treated area during the study, % Responders Score 2 [4]: 0%
Q4 any discomfort, other than slight tingling, in the treated area during the study, % Responders Score 2 [5]: 50%
Q4 any discomfort, other than slight tingling, in the treated area during the study, % Responders Score 2 [6]: 0%
Compound: O=C(CCC(=O)c1ccc2c(c1)OCO2)c1ccccc1 [#222]
Q2 appearance of my skin around either of my eyes, Average Score [1]: 1.50
Q1 My wrinkles in the eye area have improved, Average Score [1]: 2.00
Q3 how do you feel about the treated area surrounding your eyes and the appearance of wrinkles, Average Score [1]: 2.00
Q2 appearance of my skin around either of my eyes, Average Score [2]: 2.50
Q1 My wrinkles in the eye area have improved, Average Score [2]: 3.50
Q3 how do you feel about the treated area surrounding your eyes and the appearance of wrinkles, Average Score [2]: 2.50
Q2 appearance of my skin around either of my eyes, Average Score [3]: 2.50
Q1 My wrinkles in the eye area have improved, Average Score [3]: 3.50
Q3 how do you feel about the treated area surrounding your eyes and the appearance of wrinkles, Average Score [3]: 2.50
Q2 appearance of my skin around either of my eyes, Average Score [4]: 1.50
Q1 My wrinkles in the eye area have improved, Average Score [4]: 1.50
Q3 how do you feel about the treated area surrounding your eyes and the appearance of wrinkles, Average Score [4]: 1.50
Q2 appearance of my skin around either of my eyes, Average Score [5]: 2.50
Q1 My wrinkles in the eye area have improved, Average Score [5]: 3.00
Q3 how do you feel about the treated area surrounding your eyes and the appearance of wrinkles, Average Score [5]: 2.00
Q2 appearance of my skin around either of my eyes, Average Score [6]: 2.50
Q1 My wrinkles in the eye area have improved, Average Score [6]: 3.00
Q3 how do you feel about the treated area surrounding your eyes and the appearance of wrinkles, Average Score [6]: 3.00
Q2 appearance of my skin around either of my eyes, % Responders Score 1 [1]: 50%
Q2 appearance of my skin around either of my eyes, % Responders Score 1 [2]: 0%
Q2 appearance of my skin around either of my eyes, % Responders Score 1 [3]: 0%
Q2 appearance of my skin around either of my eyes, % Responders Score 1 [4]: 50%
Q2 appearance of my skin around either of my eyes, % Responders Score 1 [5]: 0%
Q2 appearance of my skin around either of my eyes, % Responders Score 1 [6]: 0%
Q1 My wrinkles in the eye area have improved, % Responders Score 1 [1]: 0%
Q1 My wrinkles in the eye area have improved, % Responders Score 1 [2]: 0%
Q1 My wrinkles in the eye area have improved, % Responders Score 1 [3]: 0%
Q1 My wrinkles in the eye area have improved, % Responders Score 1 [4]: 50%
Q1 My wrinkles in the eye area have improved, % Responders Score 1 [5]: 0%
Q1 My wrinkles in the eye area have improved, % Responders Score 1 [6]: 0%
Q3 how do you feel about the treated area surrounding your eyes and the appearance of wrinkles, % Responders Score 1 [1]: 50%
Q3 how do you feel about the treated area surrounding your eyes and the appearance of wrinkles, % Responders Score 1 [2]: 0%
Q3 how do you feel about the treated area surrounding your eyes and the appearance of wrinkles, % Responders Score 1 [3]: 0%
Q3 how do you feel about the treated area surrounding your eyes and the appearance of wrinkles, % Responders Score 1 [4]: 50%
Q3 how do you feel about the treated area surrounding your eyes and the appearance of wrinkles, % Responders Score 1 [5]: 50%
Q3 how do you feel about the treated area surrounding your eyes and the appearance of wrinkles, % Responders Score 1 [6]: 0%
Q1 My wrinkles in the eye area have improved, % Responders Score 2 [1]: 100%
Q1 My wrinkles in the eye area have improved, % Responders Score 2 [2]: 50%
Q1 My wrinkles in the eye area have improved, % Responders Score 2 [3]: 0%
Q1 My wrinkles in the eye area have improved, % Responders Score 2 [4]: 50%
Q1 My wrinkles in the eye area have improved, % Responders Score 2 [5]: 50%
Q1 My wrinkles in the eye area have improved, % Responders Score 2 [6]: 50%
Q2 appearance of my skin around either of my eyes, % Responders Score 2 [1]: 50%
Q2 appearance of my skin around either of my eyes, % Responders Score 2 [2]: 50%
Q2 appearance of my skin around either of my eyes, % Responders Score 2 [3]: 50%
Q2 appearance of my skin around either of my eyes, % Responders Score 2 [4]: 50%
Q2 appearance of my skin around either of my eyes, % Responders Score 2 [5]: 50%
Q2 appearance of my skin around either of my eyes, % Responders Score 2 [6]: 50%
Q3 how do you feel about the treated area surrounding your eyes and the appearance of wrinkles, % Responders Score 2 [1]: 0%
Q3 how do you feel about the treated area surrounding your eyes and the appearance of wrinkles, % Responders Score 2 [2]: 50%
Q3 how do you feel about the treated area surrounding your eyes and the appearance of wrinkles, % Responders Score 2 [3]: 50%
Q3 how do you feel about the treated area surrounding your eyes and the appearance of wrinkles, % Responders Score 2 [4]: 50%
Q3 how do you feel about the treated area surrounding your eyes and the appearance of wrinkles, % Responders Score 2 [5]: 0%
Q3 how do you feel about the treated area surrounding your eyes and the appearance of wrinkles, % Responders Score 2 [6]: 50%
Q1 My wrinkles in the eye area have improved, % Responders Score 3 [1]: 0%
Q1 My wrinkles in the eye area have improved, % Responders Score 3 [2]: 0%
Q1 My wrinkles in the eye area have improved, % Responders Score 3 [3]: 50%
Q1 My wrinkles in the eye area have improved, % Responders Score 3 [4]: 0%
Q1 My wrinkles in the eye area have improved, % Responders Score 3 [5]: 0%
Q1 My wrinkles in the eye area have improved, % Responders Score 3 [6]: 0%
